41 compounds from patent US20170253607A1, “LONG-ACTING HIV PROTEASE INHIBITOR” (Shionogi & Co., Ltd., priority 2014, published 2017) can be followed below.

The target of this test is HIV-1 PR (Human immunodeficiency virus type 1 group M subtype B, UniProt P04585). Kind of test: HIV-protease inhibitory activity assay (FRET peptide substrate). The format is biochemical. To be noted: Test Example 1. How it is done:
Test Example 1: HIV-Protease Inhibitory Activity Assay
The HIV-1 PR assay was performed by using a FRET (Fluorescence Resonance Energy Transfer) peptide substrate (AnaSpec, Inc., Fremont, Calif.). Initially in the intact FRET peptide, the fluorescence of HiLyte Fluor 488 is quenched by QXL 520. Upon substrate cleavage by PR, the fluorescence is recovered and can be monitored. Test compounds diluted in DMSO was plated to the wells of 384-well plate. Then, mixed with assay buffer (0.1 mol/L NaAc containing 0.5 mol/L NaCl, 1 mmol/L EDTA, 1 mmol/L DTT, and 0.05% Tween 20, pH 4.8) in the presence or absence of HIV-1 PR (0.83 ng), and let it stand for 5 minutes at room temperature. Background fluorescence intensity was measured and let it stand for another 15 minutes at room temperature. The enzyme reaction was started by adding substrate diluted in assay buffer at final concentration of 2 μmol/L, and let it stand for 60 minutes at room temperature. After 60 minutes, the fluorescence intensity was measured. Fluorescence intensity was measured with excitation and emission wavelengths of 485 nm and 535 nm, respectively.
IC50 values were determined using non-linear regression four-parameter logistic equation, y=A+((B−A)/(1+((C/x)̂D))) where A=minimum inhibition, B=maximum inhibition, C=log IC50, D=slope factor, x=concentration of compound and y=% inhibition.
`COc1ccc(S(=O)(=O)N(CC(C)C)CC(O)C(Cc2ccc(OCCNC(=O)C(=NO)c3cc(O)cc(Cl)c3)cc2)NC(=O)OC2COC3(C)OCCC23)cc1` (centres unmarked) [Compound I-67] yielded an IC50 of 1.88 nM.

As to `COc1ccc(S(=O)(=O)N(CC(C)C)CC(O)C(Cc2ccc(OCCNC(=O)c3cc(Cl)cc(Cl)c3O)cc2)NC(=O)OC2COC3(C)OCCC23)cc1` (centres unmarked) [Compound I-68], the IC50 was 1.83 nM.

As for `COc1ccc(S(=O)(=O)N(CC(C)C)CC(O)C(Cc2ccc(OCc3ccccc3NC(=O)c3cc(Cl)cc(Cl)c3O)cc2)NC(=O)OC2COC3(C)OCCC23)cc1` (centres unmarked) [Compound I-69], the midpoint of inhibition, the IC50, lay at 1.17 nM.

For the compound `COc1ccc(S(=O)(=O)N(CC(C)C)CC(O)C(Cc2ccc(OCc3ccccc3-c3ccc4c(c3)C(=O)C(c3ccc(F)cc3)C4=O)cc2)NC(=O)OC2COC3(C)OCCC23)cc1` (centres unmarked) [Compound I-70], it took 1.06 nM to reach half-maximal inhibition (IC50).

`COc1ccc(S(=O)(=O)N(CC(C)C)CC(O)C(Cc2ccc(OCc3ccccc3-c3ccc4c(c3)C(=O)C(c3ccc(C(F)(F)F)cc3)C4=O)cc2)NC(=O)OC2COC3(C)OCCC23)cc1` (centres unmarked) [Compound I-71] registered an IC50 of 1.77 nM.

In the case of `COc1ccc(S(=O)(=O)N(CC(C)C)CC(O)C(Cc2ccc(OCc3ccccc3-c3ccc4c(c3)C(=O)C(C3CCCCC3)C4=O)cc2)NC(=O)OC2COC3(C)OCCC23)cc1` (centres unmarked) [Compound I-72], the 50% inhibitory concentration (IC50) came out at 1.45 nM.

Compound `COc1ccc(S(=O)(=O)N(CC(C)C)CC(O)C(Cc2ccc(OCc3ccccc3-c3ccc4c(C(=O)O)c(-c5ccc(Cl)cc5C)sc4c3)cc2)NC(=O)OC2COC3(C)OCCC23)cc1` (centres unmarked) [Compound I-73] came in with a half-inhibitory concentration (IC50) of 4.73 nM.

In the case of `COc1ccc(S(=O)(=O)N(CC(C)C)CC(O)C(Cc2ccc(OCc3ccccc3-c3ccc4c(O)c(-c5ccc(F)cc5)c(=O)n(-c5ccccc5)c4c3)cc2)NC(=O)OC2COC3(C)OCCC23)cc1` (centres unmarked) [Compound I-75], half-maximal inhibition (IC50) required 1.19 nM.

Turning to `CCCCC1(Cc2ccc(COc3ccc(CC(NC(=O)OC4COC5(C)OCCC45)C(O)CN(CC(C)C)S(=O)(=O)c4ccc(OC)cc4)cc3)cc2)C(=O)N(c2ccccc2)N(c2ccccc2)C1=O` (centres unmarked) [Compound I-76], the midpoint of inhibition, the IC50, lay at 1.35 nM.

`COc1ccc(S(=O)(=O)N(CC(C)C)CC(O)C(Cc2ccc(OCc3ccc(C#N)cc3-c3sc4c(c3C(=O)O)CC(C)(C)CC4)cc2)NC(=O)OC2COC3(C)OCCC23)cc1` (centres unmarked) [Compound I-80] yielded a half-inhibitory concentration (IC50) of 1.75 nM.

`COc1ccc(S(=O)(=O)N(CC(C)C)CC(O)C(Cc2ccc(OCc3csc(-c4sc5c(c4C(=O)O)CC(C)(C)CC5)n3)cc2)NC(=O)OC2COC3(C)OCCC23)cc1` (centres unmarked) [Compound I-87]: the IC50 stood at 1.32 nM.

Regarding `COc1ccc(S(=O)(=O)N(CC(C)C)CC(O)C(Cc2ccc(OCc3ncsc3-c3sc4c(c3C(=O)O)CC(C)(C)CC4)cc2)NC(=O)OC2COC3(C)OCCC23)cc1` (centres unmarked) [Compound I-89], the concentration for half-maximal inhibition (IC50) turned out to be 1.11 nM. This IC50 and that of the compound before are within 1.5-fold of each other.

In turn, `COc1ccc(S(=O)(=O)N(CC(C)C)CC(O)C(Cc2ccc(OCc3cccnc3-c3sc4c(c3C(=O)O)CC(C)(C)CC4)cc2)NC(=O)OC2COC3(C)OCCC23)cc1` (centres unmarked) [Compound I-90] had an IC50 of 1.32 nM.

For the compound `COc1ccc(S(=O)(=O)N(CC(C)C)CC(O)C(Cc2ccc(OCc3ccc(-c4sc5c(c4C(=O)O)CC(C)(C)CC5)c(C)c3)cc2)NC(=O)OC2COC3(C)OCCC23)cc1` (centres unmarked) [Compound I-91], the IC50 amounted to 1.35 nM.

With `COc1ccc(S(=O)(=O)N(CC(C)C)CC(O)C(Cc2ccc(OCc3cccc(-c4sc5c(c4C(=O)O)CC(C)(C)CC5)c3C)cc2)NC(=O)OC2COC3(C)OCCC23)cc1` (centres unmarked) [Compound I-92], half-maximal inhibition (IC50) was put at 1.88 nM.

For the compound `COc1ccc(S(=O)(=O)N(CC(C)C)CC(O)C(Cc2ccc(OCC3CCCN3c3ccccc3-c3sc4c(c3C(=O)O)CC(C)(C)CC4)cc2)NC(=O)OC2COC3(C)OCCC23)cc1` (centres unmarked) [Compound I-95], the IC50 amounted to 2.09 nM.

In turn, `COc1ccc(S(=O)(=O)N(CC(C)C)CC(O)C(Cc2ccc(OCc3ccccc3-c3sccc3C(=O)O)cc2)NC(=O)OC2COC3(C)OCCC23)cc1` (centres unmarked) [Compound I-97] came in with an IC50 of 0.82 nM.

In the case of `COc1ccc(S(=O)(=O)N(CC(C)C)CC(O)C(Cc2ccc(OC3CCCN(c4ccccc4-c4sc5c(c4C(=O)O)CC(C)(C)CC5)C3)cc2)NC(=O)OC2COC3(C)OCCC23)cc1` (centres unmarked) [Compound I-100], the IC50 came to 1.98 nM.

The compound `COc1ccc(S(=O)(=O)N(CC(C)C)CC(O)C(Cc2ccc(COC3CCCN3c3ccccc3-c3sc4c(c3C(=O)O)CC(C)(C)CC4)cc2)NC(=O)OC2COC3(C)OCCC23)cc1` (centres unmarked) [Compound I-103] showed an IC50 of 3.75 nM. Compared with the last compound, the IC50 is about 1.9-fold higher.

Compound `CC(C)CN(CC(O)C(Cc1ccc(CCc2sc3c(c2C(=O)O)CC(C)(C)CC3)cc1)NC(=O)OC1COC2(C)OCCC12)S(=O)(=O)c1ccc2ncsc2c1` (centres unmarked) [Compound I-107] came in with an IC50 of 2.37 nM.

Take `COc1ccc(S(=O)(=O)N(CC(C)C)CC(O)C(Cc2ccc(-c3sccc3C(=O)O)cc2)NC(=O)OC2COC3(C)OCCC23)cc1` (centres unmarked) [Compound I-108]: the IC50 was 1.12 nM.

Compound `COc1ccc(S(=O)(=O)N(CC(C)C)CC(O)C(Cc2ccc(-c3cc(C(=O)O)cs3)cc2)NC(=O)OC2COC3(C)OCCC23)cc1` (centres unmarked) [Compound I-109] showed a 50% inhibitory concentration (IC50) of 1.2 nM.

As for `COc1ccc(S(=O)(=O)N(CC(C)C)CC(O)C(Cc2ccc(OCc3ncccc3-c3ccccc3-c3sc4c(c3C(=O)O)CC(C)(C)CC4)cc2)NC(=O)OC2COC3(C)OCCC23)cc1` (centres unmarked) [Compound I-110], the IC50 was determined as 1.67 nM. This IC50 and that of the compound before are within 1.5-fold of each other.

`COc1ccc(S(=O)(=O)N(CC(C)C)CC(O)C(Cc2ccc(OCc3ncsc3-c3ccc(-c4sc5c(c4C(=O)O)CC(C)(C)CC5)cc3)cc2)NC(=O)OC2COC3(C)OCCC23)cc1` (centres unmarked) [Compound I-111] had an IC50 of 1.48 nM.

In the case of `COc1ccc(S(=O)(=O)N(CC(C)C)CC(O)C(Cc2ccc(NCc3cccnc3-c3sc4c(c3C(=O)O)CC(C)(C)CC4)cc2)NC(=O)OC2COC3(C)OCCC23)cc1` (centres unmarked) [Compound I-128], the IC50 is 2.19 nM. This IC50 and that of the compound before are within 1.5-fold of each other.

`COc1ccc(S(=O)(=O)N(CC(C)C)CC(O)C(Cc2ccc(N(C)Cc3cccnc3-c3sc4c(c3C(=O)O)CC(C)(C)CC4)cc2)NC(=O)OC2COC3(C)OCCC23)cc1` (centres unmarked) [Compound I-129] had a half-maximal inhibitory concentration (IC50) of 3.09 nM. This IC50 and that of the compound before are within 1.5-fold of each other.

Compound `COc1ccc(S(=O)(=O)N(CC(C)C)CC(O)C(Cc2ccc(OCc3ccccc3-c3oc4c(c3C(=O)O)CCCC4)cc2)NC(=O)OC2COC3(C)OCCC23)cc1` (centres unmarked) [Compound I-130] showed a half-maximal inhibitory concentration (IC50) of 1.12 nM.

In turn, `COc1ccc(S(=O)(=O)N(CC(C)C)CC(O)C(Cc2ccc(Oc3ccc(-c4sc5c(c4C(=O)O)CC(C)(C)CC5)cc3)cc2)NC(=O)OC2COC3(C)OCCC23)cc1` (centres unmarked) [Compound I-133] yielded an IC50 of 1.53 nM.

For `COc1ccc(S(=O)(=O)N(CC(C)C)CC(O)C(Cc2ccc(Oc3ccc(-c4sc5c(c4C(=O)O)CC(C)(C)CC5)c(C(F)(F)F)c3)cc2)NC(=O)OC2COC3(C)OCCC23)cc1` (centres unmarked) [Compound I-135], the IC50 amounted to 6.8 nM. This IC50 is about 4.4-fold higher than that of the compound before.

As to `COc1ccc(S(=O)(=O)N(CC(C)C)CC(O)C(Cc2ccc(Oc3ccc(-c4sc5c(c4C(=O)O)CC(C)(C)CC5)c(OC)c3)cc2)NC(=O)OC2COC3(C)OCCC23)cc1` (centres unmarked) [Compound I-136], the half-inhibitory concentration (IC50) is 1.4 nM. This IC50 lies about 4.9-fold lower than the previous one.

`COc1ccc(S(=O)(=O)N(CC2CCCC2)CC(O)C(Cc2ccc(OCc3ccccc3-n3nc(C(=O)O)c4c3CCC(C(F)(F)F)C4)cc2)NC(=O)OC2COC3(C)OCCC23)cc1` (centres unmarked) [Compound I-141] registered an IC50 of 1.74 nM.

`COc1ccc(S(=O)(=O)N(CC(C)C)CC(O)C(Cc2ccc(OCc3ccccc3-n3nc(C(=O)O)c4c3CCC(C(F)(F)F)C4)cc2)NC(=O)OC2COC3(C)OCCC23)cc1` (centres unmarked) [Compound I-142] registered an IC50 of 1.72 nM.

In the case of `COc1ccc(S(=O)(=O)N(CC(C)C)CC(O)C(Cc2ccc(OCc3ccccc3-n3nc4c(c3C(=O)O)Cc3ccccc3-4)cc2)NC(=O)OC2COC3(C)OCCC23)cc1` (centres unmarked) [Compound I-143], the IC50 turned out to be 0.99 nM.

`COc1ccc(S(=O)(=O)N(CC(C)C)CC(O)C(Cc2ccc(OCc3ccccc3-n3nc4c(c3C(=O)O)CC(c3ccccc3)CC4)cc2)NC(=O)OC2COC3(C)OCCC23)cc1` (centres unmarked) [Compound I-144]: 0.8 nM corresponded to half-maximal inhibition (IC50). The IC50 values of the last two compounds are within 1.5-fold of each other.

As for `COc1ccc(S(=O)(=O)N(CC(C)C)CC(O)C(Cc2ccc(OCc3ccc(C(=O)O)c(-c4ccc(F)cc4F)c3)cc2)NC(=O)OC2COC3(C)OCCC23)cc1` (centres unmarked) [Compound I-149], the concentration for half-maximal inhibition (IC50) came to 1.27 nM. This IC50 is about 1.6-fold higher than that of the compound before.

With `CC(C)CN(CC(O)C(Cc1ccc(OCc2ccc(C(=O)O)cc2-c2ccc(F)cc2F)cc1)NC(=O)OC1COC2(C)OCCC12)S(=O)(=O)c1ccc2ncsc2c1` (centres unmarked) [Compound I-150], the IC50 was 0.93 nM. The IC50 values of the last two compounds are within 1.5-fold of each other.

`CC(C)CN(CC(O)C(Cc1ccc(OCc2cc(C(=O)O)ccc2-c2ccc(F)cc2F)cc1)NC(=O)OC1COC2(C)OCCC12)S(=O)(=O)c1ccc2ncsc2c1` (centres unmarked) [Compound I-151] registered an IC50 of 1.88 nM.

`COc1ccc(S(=O)(=O)N(CC(C)C)CC(O)C(Cc2ccc(OCc3ccc(-c4ccc(F)cc4F)c(C(=O)O)c3)cc2)NC(=O)OC2COC3(C)OCCC23)cc1` (centres unmarked) [Compound I-152]: the IC50 was determined as 1.15 nM.

Take `COc1ccc(S(=O)(=O)N(CC(C)C)CC(O)C(Cc2ccc(OCc3cccc(-c4ccc(F)cc4F)c3C(=O)O)cc2)NC(=O)OC2COC3(C)OCCC23)cc1` (centres unmarked) [Compound I-153]: the IC50 stood at 1.08 nM. This IC50 and that of the compound before are within 1.5-fold of each other.

For `CC(C)CN(CC(O)C(Cc1ccc(OC(C(=O)O)c2ccc(-c3ccc(F)cc3F)cc2)cc1)NC(=O)OC1COC2(C)OCCC12)S(=O)(=O)c1ccc2ncsc2c1` (centres unmarked) [Compound I-154], the IC50 was determined as 1.87 nM.

For the compound `COc1ccc(S(=O)(=O)N(CC(C)C)CC(O)C(Cc2ccc(Oc3ccc(C(=O)O)c(-c4ccc(F)cc4F)c3)cc2)NC(=O)OC2COC3(C)OCCC23)cc1` (centres unmarked) [Compound I-155], the midpoint of inhibition, the IC50, lay at 1.37 nM.
